Assay [1] concerns the target T1, human recombinant serotonin (5-Hydroxytryptamine) 5-HT2C receptor (Homo sapiens, UniProt P28335).
T1 construct: expressed in transfected cells; host or cells: CHO-K1 cells
T1 sequence (P28335 33-458): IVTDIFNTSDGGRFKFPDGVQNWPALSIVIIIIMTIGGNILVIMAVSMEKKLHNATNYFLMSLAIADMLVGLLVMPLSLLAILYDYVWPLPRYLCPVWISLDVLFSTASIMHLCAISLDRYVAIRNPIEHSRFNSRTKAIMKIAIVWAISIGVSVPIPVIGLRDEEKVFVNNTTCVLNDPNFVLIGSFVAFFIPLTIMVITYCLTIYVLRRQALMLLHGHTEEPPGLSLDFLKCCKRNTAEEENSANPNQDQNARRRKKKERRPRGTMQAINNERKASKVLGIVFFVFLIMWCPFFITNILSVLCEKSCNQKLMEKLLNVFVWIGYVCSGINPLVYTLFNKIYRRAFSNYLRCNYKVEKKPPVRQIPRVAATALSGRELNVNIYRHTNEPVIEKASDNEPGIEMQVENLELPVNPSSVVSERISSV
In words: Serotonin 5-HT2C radioligand binding ([3H]Mesulergine). To be noted: read-out: Serotonin 5-HT2C, inhibition of ligand binding (1 μM). On the procedure:
To evaluate in radioligand binding assays the activity of compounds of the invention, human recombinant serotonin (5-Hydroxytryptamine) 5-HT2C receptor expressed in Chinese hamster ovary (CHO-K1) cells (Wolf, W. A. and Schutz, J. S., J. Neurochem. 69:1449, 1997) in a modified Tris-HCl buffer (50 mM Tris-HCl, pH 7.4, 0.1% Ascorbic Acid, 10 μM Pargyline) was used. Compounds of the invention were incubated with 1 nM [^3H]Mesulergine for 60 minutes at 25° C. Non-specific binding was estimated in the presence of 1 μM Mianserin. Receptor proteins were filtered and washed, the filters were then counted to determine [^3H]Mesulergine specifically bound. Compounds were screened at 1 μM or lower, using 1% DMSO as vehicle. Biochemical assay results are presented as the percent inhibition of specific binding in Table 4.

The target of assay [2] is T2, human recombinant serotonin (5-Hydroxytryptamine) 5-HT7 receptor (Homo sapiens, UniProt P34969).
T2 construct: expressed in transfected cells; host or cells: CHO cells
T2 sequence (P34969 whole entry): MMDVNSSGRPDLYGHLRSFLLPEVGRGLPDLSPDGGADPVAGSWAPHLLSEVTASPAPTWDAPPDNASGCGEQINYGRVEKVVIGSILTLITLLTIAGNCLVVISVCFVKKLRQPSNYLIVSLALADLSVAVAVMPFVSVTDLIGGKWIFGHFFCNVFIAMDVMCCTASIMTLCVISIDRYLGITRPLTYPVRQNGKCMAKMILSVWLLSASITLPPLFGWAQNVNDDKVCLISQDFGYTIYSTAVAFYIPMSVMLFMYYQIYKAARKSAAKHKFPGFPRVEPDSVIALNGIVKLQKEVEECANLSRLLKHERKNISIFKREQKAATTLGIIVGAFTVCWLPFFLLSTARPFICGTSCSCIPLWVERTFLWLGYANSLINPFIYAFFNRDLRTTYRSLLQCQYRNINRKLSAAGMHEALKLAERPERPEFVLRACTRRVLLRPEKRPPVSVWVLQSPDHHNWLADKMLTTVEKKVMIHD
Description: Serotonin 5-HT7 radioligand binding ([3H]LSD). To be noted: for inhibition at 1 µM: read-out: Serotonin 5-HT7, inhibition of ligand binding (1 μM). As for the experimental part: To evaluate in radioligand binding assays the activity of compounds of the invention, human recombinant serotonin (5-Hydroxytryptamine) 5-HT7 receptor expressed in Chinese hamster ovary (CHO) cells (Roth, B. L. et al., J. Pharmacol. Exp. Ther. 268:1403, 1994; Shen, Y. et al., J. Biol. Chem. 268:18200, 1993) in a modified Tris-HCl buffer (50 mM Tris-HCl, pH 7.4, 10 mM MgCl2, 0.5 mM EDTA) was used. Compounds of invention were incubated with 5.5 nM [^3H] Lysergic acid diethylamide (LSD) for 2 hours at 25° C. Non-specific binding was estimated in the presence of 10 μM Serotonin (5-HT). Receptor proteins were filtered and washed, the filters were then counted to determine [^3H]LSD specifically bound. Compounds were screened at 1 μM or lower, using 1% DMSO as vehicle. Biochemical assay results are presented as the percent inhibition of specific binding in Table 4.

In assay [3] the test system is rat central imidazoline I2 receptor. In words: Central imidazoline I2 radioligand binding ([3H]Idazoxan). To be noted: compound at 1 μM; inhibition of specific [3H]Idazoxan binding. On the procedure:
To evaluate in radioligand binding assays the activity of compounds of the invention, rat central imidazoline I2 receptor obtained from Wistar Rat cerebral cortex (Brown, C. M. et al., Br. J. Pharmacol. 99:803, 1990) in a modified Tris-HCl buffer (50 mM Tris-HCl buffer, pH 7.4, 0.5 mM EDTA) was used. Compounds of the invention were incubated with 2 nM [^3H]Idazoxan for 30 minutes at 25° C. Non-specific binding was estimated in the presence of 1 μM Idazoxan. Receptor proteins were filtered and washed, the filters were then counted to determine [^3H]Idazoxan specifically bound. Compounds were screened at 1 μM or lower, using 1% DMSO as vehicle. Compounds of the invention were tested in this biochemical assay and percent inhibition of specific binding was determined.

In assay [4] the target is T3, human recombinant serotonin (5-Hydroxytryptamine) 5-HT2B receptor (Homo sapiens, UniProt P41595).
T3 construct: expressed in transfected cells; host or cells: CHO-K1 cells
T3 sequence (P41595 whole entry): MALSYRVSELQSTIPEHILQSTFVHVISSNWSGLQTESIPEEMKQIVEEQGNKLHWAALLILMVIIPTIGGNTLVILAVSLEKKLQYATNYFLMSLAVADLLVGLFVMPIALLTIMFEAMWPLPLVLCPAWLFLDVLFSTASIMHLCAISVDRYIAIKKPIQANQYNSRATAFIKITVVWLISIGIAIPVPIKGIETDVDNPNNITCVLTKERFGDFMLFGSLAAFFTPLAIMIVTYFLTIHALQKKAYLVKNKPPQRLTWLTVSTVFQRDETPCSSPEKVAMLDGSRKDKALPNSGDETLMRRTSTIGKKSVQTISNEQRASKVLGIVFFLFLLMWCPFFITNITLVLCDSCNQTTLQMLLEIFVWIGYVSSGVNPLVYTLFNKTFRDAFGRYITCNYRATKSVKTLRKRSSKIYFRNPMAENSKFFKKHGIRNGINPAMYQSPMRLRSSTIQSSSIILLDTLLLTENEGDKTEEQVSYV
Description: Serotonin 5-HT2B radioligand binding ([3H]LSD). To be noted: for inhibition at 1 µM: read-out: Serotonin 5-HT2B, inhibition of ligand binding (1 μM). On the procedure:
To evaluate in radioligand binding assays the activity of compounds of the invention, human recombinant serotonin (5-Hydroxytryptamine) 5-HT2B receptor expressed in Chinese hamster ovary (CHO-K1) cells (Bonhaus, D. W. et al., Br. J. Pharmacol. 115:622, 1995) in a modified Tris-HCl buffer (50 mM Tris-HCl, pH 7.4, 4 mM CaCl2, 0.1% Ascorbic Acid) was used. Compounds of invention were incubated with 1.2 nM [^3H]Lysergic acid diethylamide (LSD) for 60 minutes at 37° C. Non-specific binding was estimated in the presence of 10 μM Serotonin (5-HT). Receptor proteins were filtered and washed, the filters were then counted to determine [^3H]LSD specifically bound. Compounds were screened at 1 μM or lower, using 1% DMSO as vehicle. Compounds of the invention were tested in this biochemical assay and percent inhibition of specific binding was determined. Biochemical assay results are presented as the percent inhibition of specific binding in Table 4.

The structures appear in SMILES notation.

`C/C(=C\n1c2c(c3cc(Cl)ccc31)C1CCC(C2)N1C)c1ccc(Cl)cc1` (stereo not shown) [Compound 125]: the inhibition at 1 µM in assay [1] turned out to be 99%; in assay [2], 95%.

Turning to `Cc1ccc2c(c1)c1c(n2CCc2ccc(F)cc2)CC2CCC1N2C` (stereo not shown) [Compound 62], in assay [3], the “Imidazoline I2 Central (1 μM), Percentage Inhibition” value is listed as 52%. Besides, the inhibition at 1 µM in assay [1] amounted to 87%.

With `COc1ccc(C(C)(O)Cn2c3c(c4cc(Cl)ccc42)C2CCC(C3)N2C)cc1F` (stereo not shown) [Compound 160], the results for the inhibition at 1 µM in assay [1] and in assay [2] were 93% and 75%, respectively.

For `Cc1ccc2c(c1)c1c(n2C#Cc2ccc(F)cc2)CC2CCC1N2C` (stereo not shown) [Compound 141], the inhibition at 1 µM was 89% in assay [1] and 48% in assay [2].

In the case of `CN1C2CCC1c1c(n(C#Cc3ccc(Cl)cc3)c3ccc(Cl)cc13)C2` (stereo not shown) [Compound 142], the values for the inhibition at 1 µM in assay [1] and in assay [2] were 100% and 57%, respectively.

With `CN1C2CCC1c1c(n(C#Cc3ccc(F)cc3)c3ccc(Cl)cc13)C2` (stereo not shown) [Compound 138], the inhibition at 1 µM in assay [1] is 97%; in assay [2] it was 91%.

`C/C(=C\n1c2c(c3cc(Cl)ccc31)C1CCC(C2)N1C)c1ccc(F)cc1` (stereo not shown) [Compound 123]: the inhibition at 1 µM in assay [1] worked out at 95%; in assay [2], 97%.

On to `Cc1ccc(CCn2c3c(c4cc(Cl)ccc42)C2CCC(C3)N2C)cc1` (stereo not shown) [Compound 61], for which the “Imidazoline I2 Central (1 μM), Percentage Inhibition” value in assay [3] is given as 22%. The inhibition at 1 µM in assay [1] is 86%.

As for `Cc1ccc2c(c1)c1c(n2CCc2ccccc2)CC2CCCC1N2C` (stereo not shown) [Compound 56], the “Imidazoline I2 Central (1 μM), Percentage Inhibition” value in assay [3] stood at 27%. Moreover, the values for the inhibition at 1 µM in assay [4], in assay [1] and in assay [2] were -11%, 36% and 92%, respectively.

For the compound `CN1C2CCC1c1c(n(CC(=O)N3CCOCC3)c3ccc(Cl)cc13)C2` (stereo not shown) [Compound 59, 2-(2-chloro-11-methyl-5,6,7,8,9,10-Hexahydro-7,10-iminocyclohept[b]indol-5-yl)-1-morpholinoethanone], in assay [3], the “Imidazoline I2 Central (1 μM), Percentage Inhibition” value is listed as −8%. Further, the inhibition at 1 µM in assay [1] was found to be 8%.

On to `CN1C2CCC1c1c(n(CCC(=O)N3CCCC3)c3ccc(Cl)cc13)C2` (stereo not shown) [Compound 5], for which, in assay [3], the “Imidazoline I2 Central (1 μM), Percentage Inhibition” value worked out at 25%. In addition, the inhibition at 1 µM in assay [1] was -9%.

For the compound `CN1C2CCC1c1c(n(CC(=O)N3CCCC3)c3ccc(Cl)cc13)C2` (stereo not shown) [Compound 60], in assay [3], the “Imidazoline I2 Central (1 μM), Percentage Inhibition” value is 1%. Further, the inhibition at 1 µM in assay [1] was found to be 15%.

`CN1C2CCC1c1c(n(CCc3ccc(Cl)cc3)c3ccc(F)cc13)C2` (stereo not shown) [Compound 33]: in assay [3], the “Imidazoline I2 Central (1 μM), Percentage Inhibition” value is listed as 6%. The inhibition at 1 µM in assay [1] was 64%.

With `C/C(=C\n1c2c(c3cc(C)ccc31)C1CCC(C2)N1C)c1ccc(F)cc1` (stereo not shown) [Compound 124], the inhibition at 1 µM in assay [1] amounted to 86%; in assay [2], 91%.

On to `CN1C2CCC1c1c(n(CCc3ccc(F)cc3)c3ccc(Cl)cc13)C2` (stereo not shown) [Compound 57], for which the “Imidazoline I2 Central (1 μM), Percentage Inhibition” value in assay [3] is on record as 8%. Moreover, the figures for the inhibition at 1 µM in assay [4], in assay [1] and in assay [2] were 48%, 88% and 94%, respectively.

Take `CN1C2CCC1c1c(n(CCC(=O)N3CCOCC3)c3ccc(Cl)cc13)C2` (stereo not shown) [Compound 13]: the “Imidazoline I2 Central (1 μM), Percentage Inhibition” value in assay [3] is reported as −7%. Moreover, the inhibition at 1 µM in assay [1] was 8%.

On to `Cc1ccc2c(c1)c1c(n2CCc2ccccc2)CC2CCC1N2C` (stereo not shown) [Compound 2], for which the “Imidazoline I2 Central (1 μM), Percentage Inhibition” value in assay [3] was determined as 70%. Also, the inhibition at 0.03 µM in assay [4] (read-out: Serotonin 5-HT2B, inhibition of ligand binding (0.03 μM)) worked out at 37%; in assay [2] (read-out: Serotonin 5-HT7, inhibition of ligand binding (0.03 μM)), 81%. Also, in assay [4] (read-out: Serotonin 5-HT2B, inhibition of ligand binding (0.3 μM)), the inhibition at 0.3 µM came out at 88%. The inhibition at 1 µM in assay [4] worked out at 71%; in assay [1], 79%; in assay [2], 98%. In addition, the inhibition at 0.003 µM in assay [2] (read-out: Serotonin 5-HT7, inhibition of ligand binding (3.0 nM)) was 38%.

For `COc1ccc(/C(C)=C/n2c3c(c4cc(Cl)ccc42)C2CCC(C3)N2C)cc1F` (stereo not shown) [Compound 136], the inhibition at 1 µM is 100% in assay [1] and 79% in assay [2].

`C/C(=C\n1c2c(c3cc(C)ccc31)C1CCC(C2)N1C)c1ccc(Cl)cc1Cl` (stereo not shown) [Compound 163]: the inhibition at 1 µM came to 94% in assay [1] and 87% in assay [2].

Turning to `CN1C2CCC1c1c(n(CCc3ccc(Cl)cc3)c3ccc(Cl)cc13)C2` (stereo not shown) [Compound 58], in assay [3], the “Imidazoline I2 Central (1 μM), Percentage Inhibition” value is given as 8%. Besides, the figures for the inhibition at 1 µM in assay [4], in assay [1] and in assay [2] were 32%, 84% and 93%, respectively.

`CN1C2CCC1c1c(n(CCc3ccc(F)cc3)c3ccc(F)cc13)C2` (stereo not shown) [Compound 35]: in assay [3], the “Imidazoline I2 Central (1 μM), Percentage Inhibition” value amounted to 33%. The inhibition at 1 µM in assay [1] was found to be 86%.

For the compound `Cc1ccc2c(c1)c1c(n2C(=O)Cc2ccc(Cl)cc2)CC2CCC1N2C` (stereo not shown) [Compound 162], the inhibition at 1 µM in assay [1] was 93%; in assay [2] it was 43%.

With `Cc1ccc(C#Cn2c3c(c4cc(Cl)ccc42)C2CCC(C3)N2C)cn1` (stereo not shown) [Compound 139], the inhibition at 1 µM in assay [1] was found to be 93%; in assay [2], 97%.

Turning to `CN1C2CCC1c1c(n(CC(=O)c3ccc(Cl)cc3)c3ccc(Cl)cc13)C2` (stereo not shown) [Compound 111], the inhibition at 1 µM in assay [1] was 81%; in assay [2], 78%.

With `C/C(=C\n1c2c(c3cc(C)ccc31)C1CCC(C2)N1C)c1ccc(Cl)cc1` (stereo not shown) [Compound 116], the inhibition at 1 µM in assay [1] stood at 97%; in assay [2] it was 92%.

On to `COc1ccc(C(C)(O)Cn2c3c(c4cc(C)ccc42)C2CCC(C3)N2C)cc1F` (stereo not shown) [Compound 161], for which the values for the inhibition at 1 µM in assay [1] and in assay [2] were 92% and 69%, respectively.
